Reference: US20060240048A1 (priority 2002, published 2006)

Biological target: T1, human cannabinoid CB2 receptor (Homo sapiens, UniProt P34972)
T1 construct: expressed in transfected cells; host or cells: Saccharomyces cerevisiae strain MMY23
Assay: Cannabinoid CB2 receptor agonist activity, yeast reporter assay (FDGlu fluorescence);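 for Emax: 100% equals maximal response of reference agonist HU210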
Format: cell-based
Conditions: for Emax: read-out: efficacy value (Emax) at the cloned human cannabinoid CB2 receptor

T1 sequence (P34972 whole entry): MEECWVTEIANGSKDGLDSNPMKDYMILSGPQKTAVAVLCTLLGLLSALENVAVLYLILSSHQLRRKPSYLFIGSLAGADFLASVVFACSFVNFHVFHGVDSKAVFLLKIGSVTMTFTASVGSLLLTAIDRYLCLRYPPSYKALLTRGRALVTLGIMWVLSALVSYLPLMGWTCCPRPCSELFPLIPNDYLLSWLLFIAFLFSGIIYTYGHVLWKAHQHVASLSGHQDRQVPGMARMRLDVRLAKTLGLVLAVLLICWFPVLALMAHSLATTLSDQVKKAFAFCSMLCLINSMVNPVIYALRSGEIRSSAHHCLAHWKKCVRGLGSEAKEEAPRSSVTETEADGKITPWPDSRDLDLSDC

| Compound | EC50 [nM] | Emax [%] |
| --- | --- | --- |
| CC(C)CNC(=O)c1cnc(Nc2cc(F)cc(F)c2)cc1C(C)C [Example 275, 6-(3,5-Difluoro-phenylamino)-N-isobutyl-4-isopropyl-nicotinamide] | < 300 | > 50 |
| CC(C)c1cc(Nc2cccc(Cl)c2)ncc1C(=O)NCC1CCC1 [Example 6, 6-(3-Chloro-phenylamino)-N-cyclobutylmethyl-4-isopropyl-nicotinamide] | < 300 | > 50 |
| O=C(NCC1CC1)c1cnc(Nc2cccc(Cl)c2)cc1C(F)(F)F [Example 115, N-Cyclopropylmethyl-6-(3-chlorophenylamino)-4-tri-fluoromethyl-nicotinamide] | < 300 | > 50 |
| CC(C)c1cc(Nc2cc(F)cc(C(F)(F)F)c2)ncc1C(=O)NCC1CCOCC1 [Example 80, 6-(3-Fluoro-5-trifluoromethyl-phenylamino)-4-isopropyl-N-(tetrahydro-pyran-4-ylmethyl) nicotinamide] | < 300 | > 50 |
| Cc1cc(Cl)ccc1Nc1cc(C(F)(F)F)c(C(=O)NCC2CCOCC2)cn1 [Example 172, N-(Tetrahydropyran-4-yl-methyl)-6-(2-methyl-4-chloro-phenylamino)-4-trifluoro-] |  | > 50 |
| CC(C)c1cc(Nc2cccc(OC(F)(F)F)c2)ncc1C(=O)NCC1CCOCC1 [Example 20, 4-Isopropyl-N-(tetrahydro-pyran-4-ylmethyl)-6-(3-trifluoromethoxy-phenylamino) nicotinamide] | < 300 | > 50 |
| CC(C)c1cc(Nc2ccc(Br)cc2Cl)ncc1C(=O)NCC1CCOCC1 [Example 82] | < 300 | > 50 |
| CC(C)c1cc(Nc2cccc(F)c2)ncc1C(=O)NCC1CCOCC1 [Example 39, 6-(3-Fluoro-phenylamino)-4-isopropyl-N-(tetrahydro-pyran-4-ylmethyl)-nicotinamide] |  | > 50 |
| CC(C)c1cc(Nc2cccc(C(F)(F)F)c2)ncc1C(=O)NCC1CCCC1 [Example 23, N-Cyclopentylmethyl-4-isopropyl-6-(3-trifluoromethyl-phenylamino)-nicotinamide] | < 300 | > 50 |
| O=C(NC1CCC1)c1cnc(Nc2cccc(Cl)c2)cc1C(F)(F)F [Example 110, N-Cyclobutyl-6-(3-chloro-phenylamino)-4-trifluoro-methyl-nicotinamide] | < 300 | > 50 |
| CC(C)CNC(=O)c1cnc(Nc2cc(Cl)cc(Cl)c2)cc1C(F)(F)F [Example 151, N-Isobutyl-6-(3,5-dichloro-phenylamino)-4-trifluoro-methyl-nicotinamide] | < 300 | > 50 |
| CC(C)c1cc(Nc2ccc(Br)c(C(F)(F)F)c2)ncc1C(=O)NCC1CCOCC1 [Example 294, 6-(4-Bromo-3-trifluoromethyl-phenylamino)-4-isopropyl-N-(tetrahydropyran-4-ylmethyl)-nicotinamide] |  | > 50 |
| CC(C)c1cc(Nc2ccc(C#N)cc2Cl)ncc1C(=O)NCC1CCC1 [Example 259, 6-(2-Chloro-4-cyano-phenylamino)-N-cyclobutylmethyl-4-isopropyl-nicotinamide] | < 300 | > 50 |
| CC(C)c1cc(Nc2cccc(Cl)c2)ncc1C(=O)NC1CCCCC1 [Example 53, 6-(3-Chloro-Phenylamino)-N-cyclohexyl-4-isopropyl-nicotinamide] | < 300 | > 50 |
| CC(C)c1cc(Nc2ccc(Br)c(Cl)c2)ncc1C(=O)NCC1CCOCC1 [Example 90, 6-(4-Bromo-3-chloro-phenylamino)-4-isopropyl-N-(tetrahydro-pyran-4-ylmethyl)-nicotinamide] | < 300 | > 50 |
| CC(C)c1cc(Nc2cccc(Cl)c2)ncc1C(=O)NC1CCC1 [Example 50, 6-(3-Chloro-phenylamino)-N-cyclobutyl-4-isopropyl-nicotinamide] | < 300 | > 50 |
| CC(C)c1cc(Nc2ccc(Br)cc2Cl)ncc1C(=O)NCC1CCCC1 [Example 248, 6-(4-bromo-2-chlorophenylamino)-N-cyclopentylmethyl-4-isopropyl-nicotinamide] | < 300 | > 50 |
| CC(C)c1nc(Nc2cccc(F)c2)ccc1C(=O)NCC1CCOCC1 [Example 218, 6-(3-Fluoro-phenylamino)-N-(tetrahydro-pyran-4-ylmethyl)-2-isopropyl-nicotinamide] | < 300 | > 50 |
| CC(C)c1cc(Nc2cccc(Cl)c2)ncc1C(=O)NCC1(O)CCCCC1 [Example 54, 6-(3-Chloro-phenylamino)-N-(1-hydroxy-cyclohexylmethyl)-4-isopropyl-nicotinamide] | < 300 | > 50 |
| O=C(NCC1CCCCCC1)c1cnc(Nc2cccc(Br)c2)cc1C(F)(F)F [Example 117, N-Cycloheptylmethyl-6-(3-bromophenylamino)-4-tri-fluoromethyl-nicotinamide] | < 300 | > 50 |

| Compound | EC50 [nM] | Emax [%] |
| --- | --- | --- |
| CC(C)c1cc(Nc2cccc(C(F)(F)F)c2F)ncc1C(=O)NCC1CCOCC1 [Example 81, 6-(2-Fluoro-3-trifluoromethyl-isopropyl-N-phenylamino)-4-(tetrahydro-pyran-4-ylmethyl) nicotinamide] |  | > 50 |
| CC(C)(C)c1cc(Nc2ccc(Cl)cc2Cl)ncc1C(=O)NCC1CCCCC1 [Example 70, 4-tert-Butyl-6-(2,4-dichloro-phenylamino)-N-cyclohexylmethyl-nicotinamide] | < 300 | > 50 |
| COc1cccc(Nc2cc(C(C)C)c(C(=O)NCC3CCCC3)cn2)c1 [Example 27, N-Cyctopentylmethyl-4-isopropyl-6-(3-methoxyphenylamino) nicotinamide] | < 300 | > 50 |
| CC(C)CNC(=O)c1cnc(Nc2cc(Cl)ccc2F)cc1C(C)C [Example 276, 6-(5-Chloro-2-fluoro-phenylamino)-N-isobutyl-4-isopropyl-nicotinamide] | < 300 | > 50 |
| CC(C)c1cc(Nc2cccc(Cl)c2)ncc1C(=O)N1CCOCC1 [Example 11, 1-[6-(3-Chloro-phenylamino)-4-isopropyl-pyridin-3-yl]-1-morpholin-4-yl-methanone] | < 300 | > 50 |
| O=C(NCC1CCOCC1)c1cnc(Nc2cccc(Cl)c2)cc1C(F)(F)F [Example 111, N-(Tetrahydropyran-4-yl-methyl)-6-(3-chlorophenyl-amino)-4-trifluoromethyl-nicotinamide] |  | > 50 |
| CCC(CC)CNC(=O)c1cnc(Nc2cccc(Cl)c2)cc1C(C)C [Example 52, 6-(3-Chloro-phenylamino)-N-(2-ethyl-butyl)-4-isopropyl-nicotinamide] |  | > 50 |
| CC(C)c1cc(Nc2ccc(Br)cc2Cl)ncc1C(=O)NCC1CCC1 [Example 255, 6-(4-Bromo-2-chloro-phenylamino)-N-cyclobutylmethyl-4-isopropyl-nicotinamide] | < 300 | > 50 |
| O=C(NC1CCC1)c1cnc(Nc2cccc(F)c2)cc1C(F)(F)F [Example 127, N-Cyclobutyl-6-(3-fluoro-phenylamino)-4-trifluoro-methyl-nicotinamide] | < 300 | > 50 |
| O=C(NCC1CCCC1)c1cnc(Nc2ccc(Cl)cc2F)cc1C(F)(F)F [Example 161, N-Cyclopentylmethyl-6-(2-fluoro-4-chloro-phenyl-amino)-4-trifluoromethyl-nicotinamide] | < 300 | > 50 |
| CC(C)c1cc(Nc2ccc(Br)c(F)c2)ncc1C(=O)NCC1CCOCC1 [Example 297, 6-(4-Bromo-3-fluoro-phenylamino)-4-isopropyl-N-(tetrahydropyran-4-ylmethyl)-nicotinamide] | < 300 | > 50 |
| CC(C)CNC(=O)c1cnc(Nc2cc(F)ccc2Cl)cc1C(C)C [Example 274, 6-(2-Chloro-5-fluoro-phenylamino)-N-isobutyl-4-isopropyl-nicotinamide] | < 300 | > 50 |
| CC(C)c1cc(Nc2cccc(C#N)c2)ncc1C(=O)NCC1CCC1 [Example 36, 6-(3-Cyano-phenylamino)-N-cyclobutylmethyl-4-isopropyl-nicotinamide] | < 300 | > 50 |
| CC(C)c1nc(Nc2ccc(Cl)cc2Cl)ccc1C(=O)NCC1CCC1 [Example 212, 6-(2,4-Dichloro-phenylamino)-N-cyclobutylmethyl-2-isopropyl-nicotinamide] | < 300 | > 50 |
| O=C(NCC1CC1)c1cnc(Nc2cccc(F)c2)cc1C(F)(F)F [Example 132, N-Cyclopropylmethyl-6-(3-fluoro-phenylamino)-4-tri-fluoromethyl-nicotinamide] | < 300 | > 50 |
| CC(C)c1cc(Nc2cc(Cl)ccc2F)ncc1C(=O)NCC1CCOCC1 [Example 76, 6-(5-Chloro-2-fluoro-phenylamino)-4-isopropyl-N-(tetrahydro-pyran-4-ylmethyl)-nicotinamide] | < 300 | > 50 |
| CC(C)c1nc(Nc2cccc(Cl)c2)ccc1C(=O)NCC1CCOCC1 [Example 208, 6-(3-Chloro-phenylamino)-2-isopropyl-N-(tetrahydro-pyran-4-ylmethyl)-nicotinamide] | < 300 | > 50 |
| O=C(NCC1CCOCC1)c1cnc(Nc2ccc(Cl)c(Cl)c2)cc1C(F)(F)F [Example 155, N-(Tetrahydropyran-4-yl-methyl)-6-(3,4-dichloro-phenylamino)-4-trifluoro-methyl-nicotinamide] | < 300 | > 50 |
| O=C(NCC1CCOCC1)c1cnc(Nc2ccc(F)cc2Cl)cc1C(F)(F)F [Example 165, N-(Tetrahydropyran-4-yl-methyl)-6-(2-chloro-4-fluoro-phenylamino)-4-trifluoro-methyl-nicotinamide] | < 300 | > 50 |
| O=C(NCC1CCCC1)c1cnc(Nc2ccc(Cl)c(Cl)c2)cc1C(F)(F)F [Example 156, N-Cyclopentylmethyl-6-(3,4-dichloro-phenylamino)-4-tri-fluoromethyl-nicotinamide] | < 300 | > 50 |
